In patent publication US20230233430A1, “POLYOL ESTERS FROM BIOBASED FEEDSTOCKS FOR USE AS EMOLLIENT IN PERSONAL CARE APPLICATIONS” (priority 2020, published 2023):

Test: Decomposition temperature by thermogravimetric analyser (TGA)
Format: physicochemical
Conditions: reactants
Protocol: The decomposition temperature of the reactants and polyol ester of different grades (PE25, PE50 and PE100) were determined using a thermogravimetric analyser (TGA). TGA is a method of thermal analysis by measuring the changes in the mass of a sample over increasing temperatures.

| Compound | Amount of sample decomposed within the temperature range [wt. %] | Decomposition temperature [°C] |
| --- | --- | --- |
| O=C(O)CCCCCCCCC(=O)O [Sebacic acid] | 95.24 | 247.9 to 283.9 |
| CCCCCCCC(=O)O [Caprylic acid] |  | 150.9 to 193.3 |
| OCC(O)CO [Glycerin] |  | 178.7 to 220.9 |
